Measured values: the supplement of paper PMC4862054

How the values were obtained:
Conditions in all cases: incubation time: 72 h
MDA-MB-468 [1] = experiment: normalised response (% of control), CellTox Green; higher = less cell death (100 = DMSO, 0 = benzethonium chloride kill control)
Method in brief: (§1)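 A 20 µl suspension of breast cancer cells was seeded into each well of 384-well plates containing compound at 5 concentrations in 10-fold steps over a compound-specific 10,000-fold range. After 72 h incubation, CellTox Green fluorescence (485/520 nm) was read first, and CellTiter-Glo luminescence was read after 10 min at room temperature. Each plate was normalised against 0.1 % DMSO (100) and a positive kill control (0), and each value is the normalised signal at one concentration.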

MFM-223 [2] = experiment: as above
Method in brief: as §1

Hs578T [3] = experiment: as above
Method in brief: as §1

CAL-51 [4] = experiment: as above
Method in brief: as §1

CAL-85-1 [5] = experiment: as above
Method in brief: as §1

HCC1937 [6] = experiment: as above
Method in brief: as §1

CAL-120 [7] = experiment: as above
Method in brief: as §1

CAL-148 [8] = experiment: as above
Method in brief: as §1

BT-549 [9] = experiment: as above
Method in brief: as §1

HCC1599 [10] = experiment: as above
Method in brief: as §1

BT-474 [11] = experiment: as above
Method in brief: as §1

MDA-MB-231 [12] = experiment: as above
Method in brief: as §1

DU-4475 [13] = experiment: as above
Method in brief: as §1

MDA-MB-436 [14] = experiment: as above
Method in brief: as §1

HCC1143 [15] = experiment: as above
Method in brief: as §1

HDQ-P1 [16] = experiment: as above
Method in brief: as §1

MDA-MB-453 [17] = experiment: as above
Method in brief: as §1

MCF-10A [18] = experiment: as above
Method in brief: as §1

MDA-MB-468 [19] = experiment: normalised response (% of control), CellTiter-Glo; higher = more viable cells (100 = DMSO, 0 = benzethonium chloride kill control)
Method in brief: as §1

MFM-223 [20] = experiment: as above
Method in brief: as §1

Hs578T [21] = experiment: as above
Method in brief: as §1

CAL-51 [22] = experiment: as above
Method in brief: as §1

CAL-85-1 [23] = experiment: as above
Method in brief: as §1

HCC1937 [24] = experiment: as above
Method in brief: as §1

CAL-120 [25] = experiment: as above
Method in brief: as §1

CAL-148 [26] = experiment: as above
Method in brief: as §1

BT-549 [27] = experiment: as above
Method in brief: as §1

HCC1599 [28] = experiment: as above
Method in brief: as §1

SK-BR-3 = experiment: as above
Method in brief: as §1

BT-474 [29] = experiment: as above
Method in brief: as §1

MDA-MB-231 [30] = experiment: as above
Method in brief: as §1

DU-4475 [31] = experiment: as above
Method in brief: as §1

MDA-MB-436 [32] = experiment: as above
Method in brief: as §1

HCC1143 [33] = experiment: as above
Method in brief: as §1

HDQ-P1 [34] = experiment: as above
Method in brief: as §1

MDA-MB-453 [35] = experiment: as above
Method in brief: as §1

MCF-10A [36] = experiment: as above
Method in brief: as §1

SMILES	normalised response (MDA-MB-468 [1])	normalised response (MFM-223 [2])	normalised response (Hs578T [3])	normalised response (CAL-51 [4])	normalised response (CAL-85-1 [5])	normalised response (HCC1937 [6])	normalised response (CAL-120 [7])	normalised response (CAL-148 [8])	normalised response (BT-549 [9])	normalised response (HCC1599 [10])	normalised response (BT-474 [11])	normalised response (MDA-MB-231 [12])	normalised response (DU-4475 [13])	normalised response (MDA-MB-436 [14])	normalised response (HCC1143 [15])	normalised response (HDQ-P1 [16])	normalised response (MDA-MB-453 [17])	normalised response (MCF-10A [18])	normalised response (MDA-MB-468 [19])	normalised response (MFM-223 [20])	normalised response (Hs578T [21])	normalised response (CAL-51 [22])	normalised response (CAL-85-1 [23])	normalised response (HCC1937 [24])	normalised response (CAL-120 [25])	normalised response (CAL-148 [26])	normalised response (BT-549 [27])	normalised response (HCC1599 [28])	normalised response (SK-BR-3)	normalised response (BT-474 [29])	normalised response (MDA-MB-231 [30])	normalised response (DU-4475 [31])	normalised response (MDA-MB-436 [32])	normalised response (HCC1143 [33])	normalised response (HDQ-P1 [34])	normalised response (MDA-MB-453 [35])	normalised response (MCF-10A [36])
FC(F)c1nc2ccccc2n1-c1nc(N2CCOCC2)nc(N2CCOCC2)n1 [ZSTK474] (100 nM)	97.3%	102%	102%	102%	108%	64.3%	102%	100%	111%	101%	102%	110%	105%	101%	115%	101%	85.6%	85%	96.9%	97%	92.4%	92.6%	99%	87.7%	101%	94.7%	80.4%	98%	72.9%	85.3%	91.1%	97%	88.5%	99.9%	83.4%	86.8%	93%
COc1c(C)cnc(Cn2cnc3c(Cl)nc(N)nc32)c1C [BIIB021] (100 nM)	108%	97%	107%	122%	78.5%	88.4%	101%	62.7%	114%	109%	95.7%	107%	103%	82%	107%	109%	98.5%	91.5%	81.6%	82.7%	101%	82.7%	90.8%	82.1%	85.9%	88.7%	65.9%	85%	45%	106%	109%	101%	82.6%	97.9%	81.7%	81.4%	100%
CCOc1cc2ncc(C#N)c(Nc3ccc(OCc4ccccn4)c(Cl)c3)c2cc1NC(=O)/C=C/CN(C)C [Neratinib] (10 nM)	126%	94.8%	88.5%	110%	112%	102%	104%	104%	111%	104%	93.4%	120%	108%	54.2%	103%	98.1%	108%	116%	91.7%	101%	99.2%	91.5%	102%	95.1%	104%	101%	97.9%	112%	37.4%	101%	100%	105%	99.7%	97.3%	83.5%	78.3%	98.1%
O=c1[nH]cc(F)c(=O)[nH]1 [Fluorouracil] (100 nM)	99.4%	106%	101%	113%	114%	103%	100%	102%	96.8%	103%	93%	111%	106%	51.5%	92.6%	105%	106%	114%	98%	104%	105%	105%	98.3%	95.6%	107%	111%	109%	116%	104%	103%	111%	102%	105%	109%	102%	116%	113%
CN1CCN(c2ccc3nc(-c4c(N)c5c(F)cccc5[nH]c4=O)[nH]c3c2)CC1 [Dovitinib] (100 nM)	87.8%	105%	93.3%	107%	90.3%	89.1%	96%	85.1%	95.3%	108%	96.5%	89.5%	100%	72.4%	97.1%	115%	101%	102%	97.3%	100%	101%	107%	94.7%	94.8%	93.9%	99.7%	103%	94.2%	94.7%	104%	92.4%	97.1%	96.5%	103%	97.3%	100%	99.1%
CC(C)C[C@H](NC(=O)[C@H](Cc1ccccc1)NC(=O)c1cnccn1)B(O)O [Bortezomib] (10 nM)	-99.2%	82%	71%	110%	16.3%	61.9%	88%	87.2%	97.2%	101%	92%	70.5%	111%	72.3%	105%	75.7%	109%	74.6%	2.63%	17.6%	66%	96.8%	12.3%	64.8%	74.6%	98.8%	10.1%	89.7%	30%	44.5%	69.3%	88.6%	35.6%	74.7%	61.7%	69.2%	113%
O=C(c1ccc(OCCN2CCCCC2)cc1)c1c(-c2ccc(O)cc2)sc2cc(O)ccc12 [Raloxifene] (100 nM)	102%	91.7%	94.3%	97.2%	98.3%	108%	98.8%	101%	92.5%	92.4%	104%	98.8%	103%	107%	99.7%	90.1%	107%	93.2%	98.7%	104%	106%	87.8%	104%	104%	99.1%	107%	98.3%	100%	104%	101%	105%	100%	99.9%	109%	106%	99.7%	103%
COc1ncc(-c2ccc3nccc(-c4ccnnc4)c3c2)cc1NS(=O)(=O)c1ccc(F)cc1F (10 nM)	68.8%	96.3%	95%	104%	81.9%	96.1%	102%	91.5%	106%	112%	93.4%	106%	101%	106%	107%	89.5%	102%	110%	80.2%	82.7%	77.5%	77.2%	69.5%	78.7%	75.7%	96.1%	72.7%	83.4%	53%	78.3%	82%	93.1%	84.6%	85.2%	60.7%	63.3%	63.7%
